# Measured values from patent publication US20220347309A1, “PYRROLOBENZODIAZEPINE RESISTANCE” (ADC THERAPEUTICS SA, priority 2018, published 2022).
# Where two headings read alike, the source gives them in different places.
# Experiments:
# NCI-N87 PBDr cells = experiment: Drug transporter inhibitor combination growth inhibition (MTS); format: cell-based, human; settings: for response to ADCT-502: MK-571 (5 μM) or FTC (10 μM) for 24 hours before ADC
# Experimental: (§1) Cells were seeded at 10,000 cells per well in a flat bottom 96-well plate, and NCI-N87 cell were incubated overnight to allow for cell attachment.
# (§2) For ADC growth inhibition assays, cells were then incubated with serial dilutions of ADCT-301 or ADCT-502 in triplicate.
# (§3) Growth inhibition was measured after 96 hours in Karpas-299 cells and 144 hours in NCI-N87 cells using the CellTiter 96 AQueous One MTS Solution (Promega) and absorbance measured on a Multiskan Ascent plate reader (ThermoFisher) at 492 nm.
# (§4) Growth inhibition was calculated as a percentage of absorbance compared to an untreated control, and IC50 values were calculated using the sigmoidal, 4PL, X is log(concentration) equation in GraphPad Prism.
# (§5) For drug transporter inhibitor combination cytotox, the resistant cell lines were incubated overnight with either 5 μM MK-571 (ABCC2 inhibitor), 10 μM FTC (ABCG2 inhibitor), 5 μM Reversin-121 ([…]) overnight before carrying out the ADC or PBD growth inhibition assay as previously described.
# NCI-N87 ADCr cells = experiment: as above; format: cell-based, human; settings: for response to ADCT-502: MK-571 (5 μM) or FTC (10 μM) for 24 hours before ADC
# Experimental: as §1, §2, §3, §4, §5
# Karpas-299 ADCr cells = experiment: as above; format: cell-based, human; settings: for re-sensitisation to ADCT-301 treatment: MK-571 (5 μM) or FTC (10 μM) for 24 hours before ADC
# Experimental: (§6) The in vitro cytotoxicity assay (MTS) was carried out as previously described.
# as §1, §2, §3
# (§7) Growth inhibition was calculated as a percentage of absorbance compared to an untreated control, and IC50 values were calculated using the sigmoidal, 4PL, X is log(concentration) equation in GraphPad Prism. […]
# Karpas-299 PBDr cells = experiment: as above; format: cell-based, human; settings: for re-sensitisation to ADCT-301 treatment: MK-571 (5 μM) or FTC (10 μM) for 24 hours before ADC
# Experimental: as §6, §1, §2, §3, §7
# NCI-N87 wt cells = experiment: MTS in vitro cytotoxicity, 144 h continuous exposure; format: cell-based, human; settings: Homo sapiens, NCI-N87, 144 h, read-out: IC50 pM
# Experimental: (§13) To generate a resistant population to either ADCT-502 or SG3199, human gastric cancer NCI-N87 cells (expressing HER2) were incubated with an approximate IC50 dose of the drug for 144 hours. The cells were then washed and returned to fresh medium until normal cell growth was recovered. This process was repeated until a measurable and stable loss in cytotoxic efficacy was established using the MTS assay.
# (§14) To measure the in vitro cytotoxicity with the MTS assay, cells were incubated with a 10-fold dilution range of ADCT-502 or SG3199, and incubated with continuous exposure for 144 hours (at least three cell doubling times under normal cell culture conditions). After incubation the CellTiter 960 AQueous One Solution Cell Proliferation Assay (MTS) was used to measure growth inhibition, by adding 20 μl reagent to the cells and incubating for 3-4 hours, then reading the absorbance at 492 nm. Mean % growth of the ADC or PBD treated cells was calculated relative to an untreated control.
# (§15) To measure the cross-resistance of the NCI-N87 ADCR cells to the SG3199 PBD warhead, and the PBDR cells to ADCT-502, the in vitro cytotoxicity assay was carried out as described above, treating the cells with the opposite drug molecule to the one with which they were generated.
# [1] = system: NCI-N87 PBDr cells (SG3199 acquired resistant); experiment: as above; format: cell-based, human; settings: for cross-resistance (MTS growth inhibition compared to the parental cell line): NCI-N87 PBDr vs parental
# Experimental: as §13, §14, §15
# Karpas-299 wt cells = experiment: MTS in vitro cytotoxicity, 96 h continuous exposure; format: cell-based; settings: Homo sapiens, KARPAS-299, read-out: IC50 nM
# [2] = system: Karpas ADCr cells (ADCT-301 acquired resistant Karpas-299); experiment: as above
# Experimental: (§8) To generate a resistant population to either ADCT-301 or SG3199, human anaplastic large cell lymphoma Karpas-299 cells (expressing CD25) were incubated with an approximate IC50 dose of the drug for 96 hours. The cells were then washed and returned to fresh medium until normal cell growth was recovered. This process was repeated until a measurable and stable loss in cytotoxic efficacy was established using the MTS assay.
# (§9) To measure the in vitro cytotoxicity with the MTS assay, cells were incubated with a 10-fold dilution range of ADCT-301 or SG3199, and incubated with continuous exposure for 96 hours (at least three cell doubling times under normal cell culture conditions). After incubation the […] AQueous One Solution Cell Proliferation Assay (MTS) was used to measure growth inhibition, by adding 20 μl reagent to the cells and incubating for 3-4 hours, then reading the absorbance at 492 nm. Mean % growth of the ADC or PBD treated cells was calculated relative to an untreated control.
# (§10) To measure the cross-resistance of the Karpas ADCR cells to the SG3199 PBD warhead, and the PBDR cells to ADCT-301, the in vitro cytotoxicity assay was carried out as described above, treating the cells with the opposite drug molecule to the one with which they were generated.
# (§11) To measure the cross-resistance of the Karpas ADCR and PBDR cells to the PBD dimer warhead SG2000, the in vitro cytotoxicity (MTS) assay was carried out as previously described in Example 2.
# [3] = system: Karpas PBDr cells (SG3199 acquired resistant Karpas-299); experiment: as above
# Experimental: as §8, §9, §10, §11
# [4] = system: NCI-N87 ADCr cells (ADCT-502 acquired resistant); experiment: MTS in vitro cytotoxicity, 144 h continuous exposure; format: cell-based, human; settings: for cross-resistance (MTS growth inhibition compared to the parental cell line): NCI-N87 ADCr vs parental
# Experimental: as §13, §14, §15
# [5] = target: T1, CD25 on Karpas-299 PBDR cells (Homo sapiens, UniProt P01589); experiment: CD25 antibody binding, flow cytometry; settings: Karpas-299 PBDR vs wt, 1 hour on ice
# T1 construct: endogenous in cells; host or cells: Karpas-299 acquired-resistant sublines (ADCR: selected with ADCT-301; PBDR: selected with SG3199)
# T1 sequence (P01589 22-272): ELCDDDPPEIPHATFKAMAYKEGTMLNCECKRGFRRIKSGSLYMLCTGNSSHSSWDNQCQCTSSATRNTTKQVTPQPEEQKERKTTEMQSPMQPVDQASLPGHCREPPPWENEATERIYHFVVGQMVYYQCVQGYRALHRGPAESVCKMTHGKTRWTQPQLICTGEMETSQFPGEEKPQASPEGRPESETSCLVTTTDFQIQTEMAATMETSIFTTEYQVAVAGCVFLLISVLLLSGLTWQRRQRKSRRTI
# Experimental: (§12) Karpas wt and acquired resistant cells were blocked at 4° C. for 30 mins before being incubated with a serial dilution series of HuMax-TAC mAb for 1 hour on ice. The cells were then washed and incubated with a F(ab′)2-Goat anti-Human IgG Fc Secondary Antibody conjugated to Alexa Fluor 488. After incubation for 1 hour on ice in the dark the cells were washed and run on a Fortessa X20 flow cytometer, and the mean fluorescence intensity (MFI) determined using the B530/30 laser/filter. […] In NCI-N87 cell lines there was a small decrease in MFI reached by the PBDr cell line, but the ADCr cell line was unchanged compared to the parental line (data not shown). However all cells continued to express high levels of antigen.
# [6] = target: T2, CD25 on Karpas-299 ADCR cells (Homo sapiens, UniProt P01589); experiment: CD25 antibody binding, flow cytometry; settings: Karpas-299 ADCR vs wt, 1 hour on ice
# T2 construct: endogenous in cells; host or cells: Karpas-299 acquired-resistant sublines (ADCR: selected with ADCT-301; PBDR: selected with SG3199)
# T2 sequence (P01589 22-272): T1 sequence (P01589 22-272)
# Experimental: as §12
# [7] = Homo sapiens, NCI-N87, 144 h, read-out: IC50 pM
# [8] = Homo sapiens, KARPAS-299, read-out: IC50 nM
compound,measurement,setting,value
"COc1ccc2c3c([nH]c2c1)[C@H](C=C(C)C)N1C(=O)[C@@H]2CCCN2C(=O)[C@@H]1C3 [FTC, Fumitremorgin C]",response to ADCT-502,NCI-N87 PBDr cells,restored to the level of the parental cell line
same,response to ADCT-502,NCI-N87 ADCr cells,restored to the level of the parental cell line
same,re-sensitisation to ADCT-301 treatment,Karpas-299 ADCr cells; Karpas-299 ADCr,dramatic re-sensitisation
same,re-sensitisation to ADCT-301 treatment,Karpas-299 PBDr cells; Karpas-299 PBDr,dramatic re-sensitisation
CC[C@H](C)C(=O)O[C@H]1C[C@@H](C)C=C2C=C[C@H](C)[C@H](CC[C@@H]3C[C@@H](O)CC(=O)O3)[C@H]21 [Lovastatin],reversal of resistance by SLCO2B1 inhibitor,NCI-N87 PBDr cells; 5 μM Lovastatin with ADCT-502,failed to reverse the resistance
same,reversal of resistance by SLCO2B1 inhibitor,NCI-N87 ADCr cells; 5 μM Lovastatin with ADCT-502,failed to reverse the resistance
same,reversal of resistance by SLCO2B1 inhibitor,"Karpas-299 ADCr cells; Karpas-299 ADCr, 10 nM Lovastatin with ADCT-301",failed to reverse the resistance
same,reversal of resistance by SLCO2B1 inhibitor,"Karpas-299 PBDr cells; Karpas-299 PBDr, 10 nM Lovastatin with ADCT-301",failed to reverse the resistance
CN(C)C(=O)CCSC(SCCC(=O)[O-])c1cccc(/C=C/c2ccc3ccc(Cl)cc3n2)c1.[Na+] (stereo not drawn) [MK-571],response to ADCT-502,NCI-N87 PBDr cells,restored to the level of the parental cell line
same,response to ADCT-502,NCI-N87 ADCr cells,restored to the level of the parental cell line
same,reversal of acquired resistance to ADCT-301,"Karpas-299 ADCr cells; Karpas ADCr, 50 μM MK-571, 96-hour continuous exposure to ADCT-301",partially reverse the resistance
same,re-sensitisation to ADCT-301 treatment,Karpas-299 ADCr cells; Karpas-299 ADCr,dramatic re-sensitisation
same,reversal of acquired resistance to ADCT-301,"Karpas-299 PBDr cells; Karpas PBDr, 50 μM MK-571, 96-hour continuous exposure to ADCT-301",partially reverse the resistance
same,re-sensitisation to ADCT-301 treatment,Karpas-299 PBDr cells; Karpas-299 PBDr,dramatic re-sensitisation
C=C1C[C@H]2C=Nc3cc(OCCCOc4cc5c(cc4OC)C(=O)N4CC(=C)C[C@H]4C=N5)c(OC)cc3C(=O)N2C1 [SG2000],IC50,NCI-N87 wt cells,64 pM
same,IC50,[1]; [7],493 pM
same,fold resistance compared to wildtype,[1]; NCI-N87 PBDr vs NCI-N87 wt IC50,7.7 fold
same,IC50,Karpas-299 wt cells,0.9 nM
same,IC50,[2]; [8],2.8 nM
same,fold resistance compared to wildtype,[2]; Karpas ADCr vs Karpas wt IC50,3.1 fold
same,IC50,[3]; [8],4.7 nM
same,fold resistance compared to wildtype,[3]; Karpas PBDr vs Karpas wt IC50,5.2 fold
same,IC50,[4]; [7],483 pM
same,fold resistance compared to wildtype,[4]; NCI-N87 ADCr vs NCI-N87 wt IC50,7.5 fold
N.N.[Cl][Pt][Cl] [cisplatin],cross-resistance (MTS growth inhibition compared to the parental cell line),[1],decrease in growth inhibition
same,cross-resistance (MTS growth inhibition compared to the parental cell line),[4],decrease in growth inhibition
COc1cccc2c1C(=O)c1c(O)c3c(c(O)c1C2=O)C[C@@](O)(C(=O)CO)C[C@@H]3O[C@H]1C[C@H](N)[C@H](O)[C@H](C)O1 [doxorubicin],cross-resistance (MTS growth inhibition compared to the parental cell line),[1],decrease in growth inhibition
same,cross-resistance (MTS cytotoxic sensitivity compared to wt cells),[2],No cross-resistance
same,cross-resistance (MTS cytotoxic sensitivity compared to wt cells),[3],No cross-resistance
same,cross-resistance (MTS growth inhibition compared to the parental cell line),[4],decrease in growth inhibition
N[C@@H](Cc1ccc(N(CCCl)CCCl)cc1)C(=O)O [melphalan],cross-resistance (MTS growth inhibition compared to the parental cell line),[1],decrease in growth inhibition
same,cross-resistance (MTS cytotoxic sensitivity compared to wt cells),[2]; Karpas ADCr vs wt/parental,No cross-resistance
same,cross-resistance (MTS cytotoxic sensitivity compared to wt cells),[3]; Karpas PBDr vs wt/parental,No cross-resistance
same,cross-resistance (MTS growth inhibition compared to the parental cell line),[4],decrease in growth inhibition
"HuMax-TAC: fully human monoclonal IgG1,K antibody, VH SEQ ID NO. 1 and VL SEQ ID NO. 2; binds CD25",MFI of antibody binding compared to wildtype,[5],identical to wildtype cells
same,peak MFI of antibody binding compared to wildtype,[6],small decrease in peak MFI
